BigSolDB 2.1

SMILES: CCC[C@@H]1C[C@@H](C(=O)N[C@@H]([C@H]2O[C@H](SC)[C@H](O)[C@H]3OC(C)(C)O[C@H]32)[C@H](C)Cl)N(C)C1
- solubility (mole fraction) (in acetone, 273.15 K): 0.0112
- solubility (mole fraction) (in acetone, 278.15 K): 0.0132
- solubility (mole fraction) (in acetone, 283.15 K): 0.0164
- solubility (mole fraction) (in acetone, 288.15 K): 0.0195
- solubility (mole fraction) (in acetone, 293.15 K): 0.024
- solubility (mole fraction) (in acetone, 298.15 K): 0.0283
- solubility (mole fraction) (in acetone, 303.15 K): 0.0348
- solubility (mole fraction) (in acetone, 308.15 K): 0.0425
- solubility (mole fraction) (in acetone, 313.15 K): 0.0502
- solubility (mole fraction) (in acetonitrile, 273.15 K): 0.0032
- solubility (mole fraction) (in acetonitrile, 278.15 K): 0.004
- solubility (mole fraction) (in acetonitrile, 283.15 K): 0.005
- solubility (mole fraction) (in acetonitrile, 288.15 K): 0.0063
- solubility (mole fraction) (in acetonitrile, 293.15 K): 0.0078
- solubility (mole fraction) (in acetonitrile, 298.15 K): 0.0098
- solubility (mole fraction) (in acetonitrile, 303.15 K): 0.0123
- solubility (mole fraction) (in acetonitrile, 308.15 K): 0.0153
- solubility (mole fraction) (in acetonitrile, 313.15 K): 0.0189
- solubility (mole fraction) (in ethanol, 273.15 K): 0.0146
- solubility (mole fraction) (in ethanol, 278.15 K): 0.0179
- solubility (mole fraction) (in ethanol, 283.15 K): 0.0208
- solubility (mole fraction) (in ethanol, 288.15 K): 0.0243
- solubility (mole fraction) (in ethanol, 293.15 K): 0.0292
- solubility (mole fraction) (in ethanol, 298.15 K): 0.0352
- solubility (mole fraction) (in ethanol, 303.15 K): 0.0423
- solubility (mole fraction) (in ethanol, 308.15 K): 0.0506
- solubility (mole fraction) (in ethanol, 313.15 K): 0.0594
- solubility (mole fraction) (in ethyl acetate, 273.15 K): 0.0075
- solubility (mole fraction) (in ethyl acetate, 278.15 K): 0.0093
- solubility (mole fraction) (in ethyl acetate, 283.15 K): 0.0114
- solubility (mole fraction) (in ethyl acetate, 288.15 K): 0.0143
- solubility (mole fraction) (in ethyl acetate, 293.15 K): 0.0175
- solubility (mole fraction) (in ethyl acetate, 298.15 K): 0.0215
- solubility (mole fraction) (in ethyl acetate, 303.15 K): 0.026
- solubility (mole fraction) (in ethyl acetate, 308.15 K): 0.0319
- solubility (mole fraction) (in ethyl acetate, 313.15 K): 0.0388
- solubility (mole fraction) (in isobutanol, 273.15 K): 0.0139
- solubility (mole fraction) (in isobutanol, 278.15 K): 0.0175
- solubility (mole fraction) (in isobutanol, 283.15 K): 0.022
- solubility (mole fraction) (in isobutanol, 288.15 K): 0.0274
- solubility (mole fraction) (in isobutanol, 293.15 K): 0.0334
- solubility (mole fraction) (in isobutanol, 298.15 K): 0.0409
- solubility (mole fraction) (in isobutanol, 303.15 K): 0.0491
- solubility (mole fraction) (in isobutanol, 308.15 K): 0.0584
- solubility (mole fraction) (in isobutanol, 313.15 K): 0.0696
- solubility (mole fraction) (in isopropanol, 273.15 K): 0.0102
- solubility (mole fraction) (in isopropanol, 278.15 K): 0.0124
- solubility (mole fraction) (in isopropanol, 283.15 K): 0.0149
- solubility (mole fraction) (in isopropanol, 288.15 K): 0.018
- solubility (mole fraction) (in isopropanol, 293.15 K): 0.022
- solubility (mole fraction) (in isopropanol, 298.15 K): 0.0266
- solubility (mole fraction) (in isopropanol, 303.15 K): 0.0324
- solubility (mole fraction) (in isopropanol, 308.15 K): 0.0393
- solubility (mole fraction) (in isopropanol, 313.15 K): 0.0468
- solubility (mole fraction) (in methanol, 273.15 K): 0.0212
- solubility (mole fraction) (in methanol, 278.15 K): 0.0255
- solubility (mole fraction) (in methanol, 283.15 K): 0.0306
- solubility (mole fraction) (in methanol, 288.15 K): 0.0351
- solubility (mole fraction) (in methanol, 293.15 K): 0.0408
- solubility (mole fraction) (in methanol, 298.15 K): 0.0481
- solubility (mole fraction) (in methanol, 303.15 K): 0.0554
- solubility (mole fraction) (in methanol, 308.15 K): 0.0651
- solubility (mole fraction) (in methanol, 313.15 K): 0.0746
- solubility (mole fraction) (in methyl acetate, 273.15 K): 0.0087
- solubility (mole fraction) (in methyl acetate, 278.15 K): 0.0102
- solubility (mole fraction) (in methyl acetate, 283.15 K): 0.0132
- solubility (mole fraction) (in methyl acetate, 288.15 K): 0.0162
- solubility (mole fraction) (in methyl acetate, 293.15 K): 0.0198
- solubility (mole fraction) (in methyl acetate, 298.15 K): 0.024
- solubility (mole fraction) (in methyl acetate, 303.15 K): 0.0293
- solubility (mole fraction) (in methyl acetate, 308.15 K): 0.0355
- solubility (mole fraction) (in methyl acetate, 313.15 K): 0.042
- solubility (mole fraction) (in n-butanol, 273.15 K): 0.0166
- solubility (mole fraction) (in n-butanol, 278.15 K): 0.0213
- solubility (mole fraction) (in n-butanol, 283.15 K): 0.0272
- solubility (mole fraction) (in n-butanol, 288.15 K): 0.0325
- solubility (mole fraction) (in n-butanol, 293.15 K): 0.0391
- solubility (mole fraction) (in n-butanol, 298.15 K): 0.0478
- solubility (mole fraction) (in n-butanol, 303.15 K): 0.0571
- solubility (mole fraction) (in n-butanol, 308.15 K): 0.0672
- solubility (mole fraction) (in n-butanol, 313.15 K): 0.0794
- solubility (mole fraction) (in n-propanol, 273.15 K): 0.015
- solubility (mole fraction) (in n-propanol, 278.15 K): 0.0189
- solubility (mole fraction) (in n-propanol, 283.15 K): 0.0238
- solubility (mole fraction) (in n-propanol, 288.15 K): 0.0294
- solubility (mole fraction) (in n-propanol, 293.15 K): 0.0363
- solubility (mole fraction) (in n-propanol, 298.15 K): 0.0428
- solubility (mole fraction) (in n-propanol, 303.15 K): 0.0529
- solubility (mole fraction) (in n-propanol, 308.15 K): 0.0637
- solubility (mole fraction) (in n-propanol, 313.15 K): 0.0751
- solubility (mole fraction) (in n-propyl acetate, 273.15 K): 0.0065
- solubility (mole fraction) (in n-propyl acetate, 278.15 K): 0.008
- solubility (mole fraction) (in n-propyl acetate, 283.15 K): 0.0106
- solubility (mole fraction) (in n-propyl acetate, 288.15 K): 0.0124
- solubility (mole fraction) (in n-propyl acetate, 293.15 K): 0.0152
- solubility (mole fraction) (in n-propyl acetate, 298.15 K): 0.0183
- solubility (mole fraction) (in n-propyl acetate, 303.15 K): 0.0223
- solubility (mole fraction) (in n-propyl acetate, 308.15 K): 0.0283
- solubility (mole fraction) (in n-propyl acetate, 313.15 K): 0.0347
- solubility (mole fraction) (in sec-butanol, 273.15 K): 0.0229
- solubility (mole fraction) (in sec-butanol, 278.15 K): 0.0282
- solubility (mole fraction) (in sec-butanol, 283.15 K): 0.0344
- solubility (mole fraction) (in sec-butanol, 288.15 K): 0.0413
- solubility (mole fraction) (in sec-butanol, 293.15 K): 0.0507
- solubility (mole fraction) (in sec-butanol, 298.15 K): 0.0597
- solubility (mole fraction) (in sec-butanol, 303.15 K): 0.0709
- solubility (mole fraction) (in sec-butanol, 308.15 K): 0.0813
- solubility (mole fraction) (in sec-butanol, 313.15 K): 0.0947
